Assay results published in patent publication US12492224B2, “Bicyclic peptide ligands specific for PD-L1” (BicycleTx Limited, priority 2018, dated 2025).
Where no end group is shown, it is not given here. [ ]: non-standard residue; d: D form. hArg = N=C(N)NCCCC[C@H](N)C(=O)O; Aad = N[C@@H](CCCC(=O)O)C(=O)O; Nva = CCC[C@H](N)C(=O)O

The substances below were run against T1, human PD-L1 (Homo sapiens, UniProt Q9NZQ7) (assay: PD-L1 SPR Binding Assay (Biacore), human). Settings: 25° C.
T1 construct: purchased Sino Biologicals or R&D systems
Procedure: The protein was desalted to remove uncoupled biotin using spin columns into PBS. For analysis of binding, a Biacore 3000 instrument was used utilizing a CM5 sensor chip (GE Healthcare). Streptavidin was immobilized on the chip using standard amine-coupling chemistry at 25° C. with HBS-N (10 mM HEPES, 0.15 M NaCl, pH 7.4) as the running buffer. The carboxymethyl dextran surface was activated with a 12 min injection of a 1:1 ratio of 0.4 M 1-ethyl-3-(3-dimethylaminopropyl) carbodiimide hydrochloride (EDC)/0.1 M N-hydroxy succinimide (NHS) at a flow rate of 10 μl/min. For capture of streptavidin, protein was diluted to 0.1 mg/ml in 10 mM sodium acetate (pH 4.5) and captured by injecting 70 μl onto the activated chip surface. Residual activated groups were blocked with a 7 min injection of 1 M ethanolamine (pH 8.5). Biotinylated PD-L1 stock was diluted 1:100 in HBS-N and captured on one flow cell at 5 μl/min to a level of 1000-1300 RU. Buffer was changed to PBS/0.05% Tween 20 and a dilution series of the peptides was prepared in this buffer with a final DMSO concentration of 0.5%. The top concentrations were 200 nM or 500 nM with 6 2-fold dilutions. The SPR analysis was run at 25° C. at a flow rate of Flow rate 50 μl/min with 60 seconds association and 400 seconds disassociation. Data were corrected for DMSO excluded volume effects. All data were double-referenced for blank injections and reference surface using standard processing procedures and data processing and kinetic fitting were performed using Scrubber software, version 2.0c (Biologic Software). Data were fitted using mass transport model allowing for mass transport effects where appropriate.

T1 sequence (Q9NZQ7 19-290): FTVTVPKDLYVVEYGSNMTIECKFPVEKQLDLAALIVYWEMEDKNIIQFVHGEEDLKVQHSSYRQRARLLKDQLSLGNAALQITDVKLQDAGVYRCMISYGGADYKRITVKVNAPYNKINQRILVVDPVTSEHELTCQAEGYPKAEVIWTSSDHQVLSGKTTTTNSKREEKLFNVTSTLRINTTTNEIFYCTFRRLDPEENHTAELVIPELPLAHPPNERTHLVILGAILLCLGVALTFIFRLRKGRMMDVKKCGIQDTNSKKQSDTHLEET

Row | Substance | Kd [nM]
1 | SDKCS[Abu]GWLTMCQKLHLCA [BCY10055] | 27.9
2 | SDKCSAGWLTMCQKLH[Nva]CA [BCY10083] | 75
3 | SDKCSAGWLTMCQ[Nle]LHLCA [BCY10068] | 54.5
4 | SDKCSAGWLTMC[Chg]KLHLCA [BCY10066] | 14.4
5 | SDKCSAGWLTMCQK[Nva]HLCA (cysteine pairing not given here) [BCY10084] | 43.2
6 | Ac-EKCS[Aad]GWLTMCLKLHLC (cysteine pairing not given here) [BCY11826] | 18.2
7 | SDKCSAGWLTMCQKLH[Nle]CA [BCY10074] | 36.1
8 | SDKCS[Nle]GWLTMCQKLHLCA [BCY10062] | 23
9 | SD[HArg]CSAGWLTMCQKLHLCA [BCY10052] | 22.3
10 | Ac-DKCS[Aad]GWLTMCQKLHLCPSH-COOH [BCY11853] | 17.6
11 | Ac-SDKCS[Aad]GWLTMCLKLHLCA [BCY11828] | 16.6
12 | Ac-SEKCS[Aad]GWLTMCLKLHLCPSH (cysteine pairing not given here) [BCY11831] | 13.2
13 | SDKCSAGWLT[Nle]CQKLHLCA [BCY10058] | 59.7
14 | SDKCS[Aib]GWLTMCQKLHLCA [BCY10054] | 31.2
15 | Ac-SEKCS[Aad]GWLTMCLKLHLC (cysteine pairing not given here) [BCY11825] | 28.8
16 | SDKCSAGWLTMCQKL[Aib]LCA [BCY10073] | 15.8
17 | Ac-[hArg]CS[Aad]GWLTMCLKLHLC (cysteine pairing not given here) [BCY11827] | 30
18 | Ac-KCS[Aad]GWLTMCLKLHLC (cysteine pairing not given here) [BCY11824] | 60
19 | SDKCSAGWLTMCQK[Nle]HLCA [BCY10071] | 58.2

What follows are substances tested against T2, PD-1/PD-L1 interaction (Homo sapiens, UniProt Q9NZQ7) (assay: PD-1/PD-L1 Blockade Bioassay (Jurkat PD-1 NFAT-luciferase / CHO-K1 PD-L1)). Settings: FIG. 1 and Table 6.
T2 construct: host or cells: CHO-K1 (human PD-L1) and Jurkat (human PD-1, NFAT-luciferase)
Format: cell-based
Procedure: Effector Jurkat cells engineered to overexpress human PD-1 and express a luciferase gene under the NFAT response element were purchased from Promega. Target CHO-K1 cells which overexpress human PD-L1 and an engineered cell surface protein designed to activate the Jurkat's T cell receptor in an antigen-independent manner were also purchased from Promega. CHO-K1 cells were plated the day before the assay in Ham's F-12 Medium+10% FBS and were allowed to adhere to the plate. On the day of the assay, media was removed and Jurkat cells were plated with a dose response of test articles in RPMI1640 media with 1% FBS (80 μL total volume per well). […] After 6 hours of incubation at 37° C., 5% CO2, 80 μL of Bio-Glo reagent (Promega) was added to each well and allowed to equilibrate for 10 minutes at room temperature. Luminescence was read on the Clariostar plate reader (BMG LabTech). Fold induction was calculated by dividing the luminescence signal by the average of the background wells (wells with both cell lines and no test article). Data was graphed in Prism and fit to a 4-parameter logistic curve.

T2 sequence (Q9NZQ7 19-290): as above

Row | Substance | ability to block PD-1/PD-L1 interaction between PD-1 expressing T cells and CHO-K1 stable expressing PD-L1
20 | [Ac]SD[HArg]CS[Nle]GWLT[hPhe]CLKL[Aib]LCPSH [BCY10959] | demonstrated the ability to block PD-1/PD-L1 interaction
21 | [Ac]SDKCSAGWLTMCKQLNLCPSH-COOH [BCY10939] | demonstrated the ability to block PD-1/PD-L1 interaction
22 | [Ac]SDKCSAGWLTMCKQLNLCPSH [BCY10467] | demonstrated the ability to block PD-1/PD-L1 interaction
